Source: US7238813B2, “Chemical compounds” (Smithkline Beecham Corporation, priority 2000, dated 2007)

Assays:
[1] = target: T1, GST-VEGFR2 (Homo sapiens, UniProt P35968); assay: VEGF-R2 enzyme assay (VEGF-E), LANCE method; type: biochemical; details: 75 μM ATP
T1 construct: GST-VEGFR2, baculovirus expressed recombinant constructs of the intracellular domains of human TIE2 tagged by GST; made in house

[2] = target: Recombinant GST-Tie2 (Homo sapiens, UniProt Q02763); assay: Tie2 fluorescence polarization kinase activity assay (TIE2-FP); type: biochemical; details: starred examples, 200 μM ATP, read-out: TIE2-E (Tie-2 activities run utilizing Tie2-FP assay)
Protocol: Tie2 Fluorescence Polarization Kinase Activity Assay: (TIE2-FP)
Activation of Recombinant Tie2 Activation:
Recombinant GST-Tie2 was activated by incubating the enzyme in 20 mM Tris-HCl, pH 7.5, 12 mM MgCl2, 100 mM NaCl, 20 μM sodium vanidate, 1 mM DTT and 300 μM ATP at room temperature for 2 hours. The activation mixture was then passed through a NAP-25 desalting column (Pharmacia Biotech cat. no. 17-0852-02) to remove the free ATP. The activated enzyme was stored as aliquots at −80° C. in 20 mM Tris-HCl, pH 7.5 and 100 mM NaCl.
The final assay conditions were 50 mM HEPES, pH 7.5, 5% DMSO (when screening compounds), 200 μM ATP, 5 mM MgCl2, 1 mM DTT, 50 μM sodium vanidate, 1 nM activated enzyme, and 200 μM peptide. IC50's of compounds were measured under subsaturating ATP (200 μM) and varing concentrations of activated Tie2 and peptide substrate ([…]-OH; MW 1873 Da, TFA salt). Panvera Antiphosphotyrosine antibody (Cat#P2840) and PTK Green Tracer (Cat#P2842) were used to detect the phosphorylated peptide. Polarization was measured on a TECAN Polarion in 138-second cycles for 30 minutes at room temperature. IC50's were then determined from the % polarization using normal calculation methods.

[3] = target: T2, GST-TIE2 (intracellular domains of human TIE2) (Homo sapiens, UniProt Q02763); assay: TIE-2 enzyme assay (TIE2-E), LANCE method; type: biochemical; details: 80 uM ATP
T2 construct: made in house
Procedure, shortened: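 Baculovirus GST-TIE2 (human intracellular domain, aa 762–1104) preactivated 30 min at RT with 2 mM ATP, then reacted 30 min at RT with 1 μM D1-15 peptide, 80 uM ATP, 10 mM MgCl2, pH 7.4, 2.4% DMSO. EDTA-stopped; LANCE Eu-anti-pTyr/streptavidin-APC read-out. IC50 by nonlinear regression, reported as pIC50.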

[4] = test system: Human umbilical cord endothelial cells (HUVEC); assay: VEGF-driven cellular proliferation assay: BrdU incorporation assay (VEGF-C); type: cell-based; design: key to VEGF-C: + = pIC50 of 5.0–6.0; ++ = pIC50 of 6.0–7.0; +++ = pIC50 of > 7.0; − = a negative or inconclusive result; details: for IC50: Homo sapiens
Procedure, shortened: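 HUVEC (≤6 passages) were plated at 5000 cells/well and exposed to compound 30 min in serum-free M199 containing 0.6% DMSO. Medium with 20 ng/ml VEGF was then added for 24 h, followed by a 24 h pulse with 10 μM BrdU and ELISA read at 450 nm. IC50 from nonlinear regression of percent inhibition was expressed as pIC50.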

[5] = target: T3, TIE2 intracellular domain/c-fms extracellular domain (TIE2/c-fms) chimeric protein expressing mouse 3T3 cells (Homo sapiens, UniProt Q02763); assay: TIE-2 autophosphorylation assay (TIE2-C), ELISA; type: cell-based; details: TIE2/c-fms 3T3 cells, MCSF activation
T3 construct: a TIE2 intracellular domain/c-fms extracellular domain (TIE2/c-fms) chimeric protein; expressed in transfected cells; host or cells: mouse 3T3 cells
Procedure, shortened: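 Mouse 3T3 cells expressing TIE2 intracellular/c-fms extracellular chimera treated with compound for 1 hr in serum-free DMEM (0.1% DMSO), then stimulated with MCSF. Lysates captured on anti-c-fms plates overnight at 4 °C; phosphotyrosine detected by biotin-PT66/HRP-streptavidin, OD450. IC50 by nonlinear regression, reported as pIC50.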

T3 sequence (Q02763 770-1124 limits assumed, change not shown): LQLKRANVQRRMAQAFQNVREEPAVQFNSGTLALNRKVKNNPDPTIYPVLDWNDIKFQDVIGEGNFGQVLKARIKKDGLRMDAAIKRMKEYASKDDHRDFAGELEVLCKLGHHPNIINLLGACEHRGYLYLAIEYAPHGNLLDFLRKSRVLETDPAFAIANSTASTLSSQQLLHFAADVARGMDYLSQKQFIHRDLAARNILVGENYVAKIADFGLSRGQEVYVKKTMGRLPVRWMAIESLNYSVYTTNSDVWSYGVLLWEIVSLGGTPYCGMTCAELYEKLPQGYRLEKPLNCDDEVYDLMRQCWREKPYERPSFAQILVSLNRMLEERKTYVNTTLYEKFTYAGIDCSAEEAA
T1 sequence (P35968 786-1356 limits assumed): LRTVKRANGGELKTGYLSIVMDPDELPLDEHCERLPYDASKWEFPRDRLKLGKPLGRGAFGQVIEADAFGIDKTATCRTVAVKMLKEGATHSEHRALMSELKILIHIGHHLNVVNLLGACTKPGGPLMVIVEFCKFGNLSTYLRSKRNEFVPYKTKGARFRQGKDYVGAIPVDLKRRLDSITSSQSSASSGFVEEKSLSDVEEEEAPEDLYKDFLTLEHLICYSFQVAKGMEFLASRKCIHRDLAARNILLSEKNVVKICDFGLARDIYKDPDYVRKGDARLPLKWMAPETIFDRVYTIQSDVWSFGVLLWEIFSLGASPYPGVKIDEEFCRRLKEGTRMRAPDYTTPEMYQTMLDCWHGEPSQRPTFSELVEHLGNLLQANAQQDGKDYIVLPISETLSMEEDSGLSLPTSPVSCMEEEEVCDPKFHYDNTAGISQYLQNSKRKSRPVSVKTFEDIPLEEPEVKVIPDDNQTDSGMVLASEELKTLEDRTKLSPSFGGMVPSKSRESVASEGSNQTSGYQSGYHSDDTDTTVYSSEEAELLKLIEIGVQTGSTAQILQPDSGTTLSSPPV
T2 sequence (Q02763 762-1104): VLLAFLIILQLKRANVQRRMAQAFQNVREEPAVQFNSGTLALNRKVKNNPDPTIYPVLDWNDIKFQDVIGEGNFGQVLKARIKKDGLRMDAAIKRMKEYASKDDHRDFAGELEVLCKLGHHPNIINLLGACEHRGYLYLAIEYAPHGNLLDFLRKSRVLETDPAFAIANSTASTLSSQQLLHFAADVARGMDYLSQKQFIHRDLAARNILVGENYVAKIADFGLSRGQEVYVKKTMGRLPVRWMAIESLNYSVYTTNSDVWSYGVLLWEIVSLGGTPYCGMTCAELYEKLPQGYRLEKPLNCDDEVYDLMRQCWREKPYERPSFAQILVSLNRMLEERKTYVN
Sequence of Recombinant GST-Tie2 (Q02763 23-1124): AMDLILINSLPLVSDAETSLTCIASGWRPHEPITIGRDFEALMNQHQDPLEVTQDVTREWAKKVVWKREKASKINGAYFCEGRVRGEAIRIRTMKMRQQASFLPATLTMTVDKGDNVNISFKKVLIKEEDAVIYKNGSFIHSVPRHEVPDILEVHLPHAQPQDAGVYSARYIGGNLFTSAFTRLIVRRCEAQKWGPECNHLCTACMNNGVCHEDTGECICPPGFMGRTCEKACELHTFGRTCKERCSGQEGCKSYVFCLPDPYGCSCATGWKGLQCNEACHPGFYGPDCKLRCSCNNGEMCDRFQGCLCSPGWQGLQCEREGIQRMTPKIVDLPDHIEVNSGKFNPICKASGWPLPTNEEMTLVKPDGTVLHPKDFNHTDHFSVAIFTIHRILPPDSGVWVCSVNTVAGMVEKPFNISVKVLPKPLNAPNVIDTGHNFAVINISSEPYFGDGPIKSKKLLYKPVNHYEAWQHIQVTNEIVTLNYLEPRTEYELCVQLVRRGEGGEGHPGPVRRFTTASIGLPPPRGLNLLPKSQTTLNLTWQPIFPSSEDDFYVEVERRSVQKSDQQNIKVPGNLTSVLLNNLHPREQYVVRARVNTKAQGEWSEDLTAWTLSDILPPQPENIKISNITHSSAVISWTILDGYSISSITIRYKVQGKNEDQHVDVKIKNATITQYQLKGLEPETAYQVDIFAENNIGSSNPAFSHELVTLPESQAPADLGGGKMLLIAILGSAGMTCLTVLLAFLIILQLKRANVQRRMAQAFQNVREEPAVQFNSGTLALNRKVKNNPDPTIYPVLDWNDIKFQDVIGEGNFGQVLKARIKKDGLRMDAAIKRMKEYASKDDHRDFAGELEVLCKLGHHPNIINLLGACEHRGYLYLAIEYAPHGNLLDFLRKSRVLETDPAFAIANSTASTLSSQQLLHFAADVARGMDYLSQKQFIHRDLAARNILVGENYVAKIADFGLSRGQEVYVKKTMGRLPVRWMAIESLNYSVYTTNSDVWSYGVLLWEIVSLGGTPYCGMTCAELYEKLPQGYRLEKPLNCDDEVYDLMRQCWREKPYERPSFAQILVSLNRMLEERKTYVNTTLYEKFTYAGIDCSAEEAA

Row | IC50 [1] [µM] | IC50 [2] [µM] | IC50 [3] [µM] | IC50 [5] [µM] | SMILES | IC50 [4] [µM] | VEGF-C [4]
1 | < 0.1 | 0.1 to 1 |  |  | CC(=O)Nc1nc2cc(Oc3ccc(NC(=O)Nc4nc(C(C)(C)C)cs4)cc3)ccc2[nH]1 [Example 146, N-(5-(4-((4-tert-Butylthiazol-2-yl)aminocarbonylamino)phenoxy)-1H-benzimidazol-2-yl)acetamide] |  | 
2 | 0.1 to 1 | 1 to 10 |  |  | COCCOCC(=O)Nc1nc2cc(Oc3ccc(NC(=O)Nc4nccs4)cc3)ccc2[nH]1 [Example 151, N-(5-(4-((Thiazol-2-yl)aminocarbonylamino)phenoxy)-1H-benzimidazol-2-yl)(2-(methoxy)ethoxy)acetamide] |  | 
3 | < 0.1 | 0.1 to 1 |  |  | COCCOCC(=O)Nc1nc2cc(Oc3ccc(NC(=O)Nc4nc(C(C)(C)C)cs4)cc3)ccc2[nH]1 [Example 158, N-(5-(4-((4-tert-Butylthiazol-2-yl)aminocarbonylamino)phenoxy)-1H-benzimidazol-2-yl)(2-(methoxy)ethoxy)acetamide] |  | 
4 | 0.1 to 1 | 1 to 10 |  |  | COCCOCC(=O)Nc1nc2cc(Oc3ccc(NC(=O)Nc4nc(C)cs4)cc3)ccc2[nH]1 [Example 153, N-(5-(4-((4-Methylthiazol-2-yl)aminocarbonylamino)phenoxy)-1H-benzimidazol-2-yl)(2-(methoxy)ethoxy)acetamide] |  | 
5 | 1 to 10 | 1 to 10 |  |  | COCCOCC(=O)Nc1nc2cc(Oc3ccc(NC(=O)Nc4nncs4)cc3)ccc2[nH]1 [Example 152, N-(5-(4-((1,3,4-Thiadiazol-2-yl)aminocarbonylamino)phenoxy)-1H-benzimidazol-2-yl)(2-(methoxy)ethoxy)acetamide] |  | 
6 | < 0.1 | < 0.1 |  |  | COCCOCC(=O)Nc1nc2cc(Oc3ccc(NC(=O)Nc4nnc(C(C)(C)C)s4)cc3)ccc2[nH]1 [Example 159, N-(5-(4-((5-tert-Butyl-1,3,4-thiadiazol-2-yl)aminocarbonylamino)phenoxy)-1H-benzimidazol-2-yl)(2-(methoxy)ethoxy)acetamide] |  | 
7 | 0.1 to 1 | 1 to 10 |  |  | COCCOCC(=O)Nc1nc2cc(Oc3ccc(NC(=O)Nc4nnc(C)s4)cc3)ccc2[nH]1 [Example 155, N-(5-(4-((5-Methyl-1,3,4-thiadiazol-2-yl)aminocarbonylamino)phenoxy)-1H-benzimidazol-2-yl)(2-(methoxy)ethoxy)acetamide] |  | 
8 | < 0.1 | 0.1 to 1 |  |  | CCc1nnc(NC(=O)Nc2ccc(Oc3ccc4[nH]c(NC(=O)COCCOC)nc4c3)cc2)s1 [Example 156, N-(5-(4-((5-Ethyl-1,3,4-thiadiazol-2-yl)aminocarbonylamino)phenoxy)-1H-benzimidazol-2-yl)(2-(methoxy)ethoxy)acetamide] |  | 
9 | < 0.1 |  | < 0.1 | 1 to 10 | Nc1nc2ccc(Oc3ccc(NC(=O)Nc4cc(C(F)(F)F)ccc4F)cc3)cc2[nH]1 [Example 22, 2-Amino-5-(4-((2-fluoro-5-(trifluoromethyl)phenyl)aminocarbonylamino)phenoxy)-1H-benzimidazole.] | 1 to 10 | 
10 | < 0.1 |  | < 0.1 | < 0.1 | COC(=O)Nc1nc2cc(Oc3ccc(NC(=O)Nc4cc([N+](=O)[O-])ccc4C)cc3)ccc2[nH]1 [Example 47, Methyl N-(5-(4-((2-methyl-5-nitrophenyl)aminocarbonylamino)phenoxy)-1H-benzimidazol-2-yl)carbamate] |  | −
11 | < 0.1 |  | < 0.1 | < 0.1 | O=C1CCn2c(nc3ccc(Oc4ccc(NC(=O)Nc5cc(C(F)(F)F)ccc5F)cc4)nc32)N1 [Example 77] | 0.1 to 1 | 
12 | < 0.1 |  | < 0.1 | < 0.1 | CN(C)CCOC(=O)Nc1nc2cc(Oc3ccc(NC(=O)Nc4cc(C(F)(F)F)ccc4F)cc3)ccc2[nH]1 [Example 80, 2-(Dimethylamino)ethyl N-(5-(4-((2-fluoro-5-(trifluoromethyl)phenyl)aminocarbonylamino)phenoxy)-1H-benzimidazol-2-yl)carbamate] | < 0.1 | 
13 | < 0.1 |  | < 0.1 | < 0.1 | COC(=O)Nc1nc2cc(Oc3ccc(NC(=O)Nc4cccc(SC)c4)cc3)ccc2[nH]1 [Example 48] |  | −
14 | 0.1 to 1 |  | < 0.1 | 1 to 10 | COC(=O)Nc1nc2ccc(Sc3ccc(NC(=O)Nc4cccc(Br)c4)cc3)cc2[nH]1 [Example 4, Methyl N-(5-(4-((3-bromophenyl)aminocarbonylamino)phenylthio)-1H-benzimidazol-2-yl)carbamate] |  | −
15 | < 0.1 |  | < 0.1 | < 0.1 | COC(=O)Nc1nc2cc(Oc3ccc(NC(=O)Nc4cc([N+](=O)[O-])ccc4F)cc3)ccc2[nH]1 [Example 46, Methyl N-(5-(4-((2-fluoro-5-nitrophenyl)aminocarbonylamino)phenoxy)-1H-benzimidazol-2-yl)carbamate] |  | −
